Measured values as given in publication PMC10460087, “Structure Activity Relationship and Molecular Docking of Some Quinazolines Bearing Sulfamerazine Moiety as New 3CLpro, cPLA2, sPLA2 Inhibitors” (Molecules, 2023).
Read-outs that look alike come from different tables or passages of the source. Marks after values point to notes of the source that are not given here.

Experiments:
sPLA2 [1] = type: cell-based, mouse; conditions: for decrease in sPLA2 level: compared to LPS-exposed cells
NO = type: cell-based, mouse; conditions: for decrease in NO level: compared to LPS-exposed cells
cPLA2 [2] = test: biochemical; design: species or system bee
Target sequence in this assay (P00630 34-167 limits assumed): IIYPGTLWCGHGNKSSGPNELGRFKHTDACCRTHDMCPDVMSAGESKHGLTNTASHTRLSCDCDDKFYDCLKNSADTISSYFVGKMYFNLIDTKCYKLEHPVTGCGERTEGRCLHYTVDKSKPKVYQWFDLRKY

SARS-CoV-2 main protease = SARS-CoV-2 main protease (Severe acute respiratory syndrome coronavirus 2, UniProt P0DTD1); test: biochemical; conditions: mean ± SD; tested 0–17.5 µM
cPLA2 [3] = type: cell-based, mouse; conditions: for decrease in cPLA2 level: compared to LPS-exposed cells
sPLA2 [4] = test: sPLA2 enzyme inhibition assay (Cayman Chemical kit); type: biochemical; conditions: mean ± SD; tested 0–17.5 µM
Description: The sPLA2 screening assay was carried out according to the manufacturer’s protocol (Cayman Chemical). Briefly, 10 μL of sPLA2 was mixed with 10 μL of dimethyl sulfoxide. In a separate experiment, 10 µL of sPLA2 was added to 10 µL standard sPLA2 inhibitor (thioetheramide, 12.5 µM) and 200 µL substrate solution (diheptanoyl thiol). […] In a separate experiment, 10 μL of assay buffer was mixed with 10 μL of dimethyl sulfoxide and 200 µL of substrate solution. The reaction was initiated by the addition 10 µL of DTNB to all samples. The plate was carefully vortexed for 10 s, then covered with a plate cover and incubated for 15 min at 25 °C. Absorbance was recorded at […] using a plate reader and the IC50 was determined for the synthesized compounds (4–6 and 12) as well as the standard drugs.

IL-8 = IL-8 level in LPS-treated isolated lung cells (ELISA); type: cell-based, mouse; conditions: for decrease in IL-8 level: compared to LPS-exposed cells
TNF-α = type: cell-based, mouse; conditions: for decrease in TNF-α level: compared to LPS-exposed cells
cPLA2 (bee venom PLA2) = cPLA2 (bee venom PLA2) (Apis mellifera, UniProt P00630); test: biochemical
[5] = LPS 1 μg/mL + higher dose: 4 2.84, 5 3.68, 6 1.18, 12 5.47, baicalein 3.88, ivermectin 149.39 µM
[6] = LPS 1 μg/mL + lower dose: 4 1.44, 5 2.08, 6 0.5, 12 2.39, baicalein 0.89, ivermectin 131.01 µM
[7] = higher dose: 4 2.84, 5 3.68, 6 1.18, 12 5.47, baicalein 3.88, ivermectin 149.39 µM
[8] = lower dose: 4 1.44, 5 2.08, 6 0.5, 12 2.39, baicalein 0.89, ivermectin 131.01 µM

Chain of cPLA2 (bee venom PLA2) (P00630 34-167 limits assumed): as above

| Molecule | sPLA2 level (sPLA2 [1]; [5]) | sPLA2 level (sPLA2 [1]; [6]) | decrease in sPLA2 level (sPLA2 [1]; [7]) [%] | decrease in sPLA2 level (sPLA2 [1]; [8]) [%] | NO level (NO; [5]) | NO level (NO; [6]) | decrease in NO level (NO; [7]) [%] | decrease in NO level (NO; [8]) [%] | cPLA2 level (cPLA2 [3]; [5]) | cPLA2 level (cPLA2 [3]; [6]) | decrease in cPLA2 level (cPLA2 [3]; [7]) [%] | decrease in cPLA2 level (cPLA2 [3]; [8]) [%] | IC50 (sPLA2 [4]) [µM] | IL-8 level (IL-8; [5]) | IL-8 level (IL-8; [6]) | decrease in IL-8 level (IL-8; [7]) [%] | decrease in IL-8 level (IL-8; [8]) [%] | TNF-α level (TNF-α; [5]) | TNF-α level (TNF-α; [6]) | decrease in TNF-α level (TNF-α; [7]) [%] | further results |
| --- | --- | --- | --- | --- | --- | --- | --- | --- | --- | --- | --- | --- | --- | --- | --- | --- | --- | --- | --- | --- | --- |
| Cc1ccnc(NS(=O)(=O)c2ccc(N3CC(=O)Nn4c3nc3ccccc3c4=O)cc2)n1 [Compound 6] | 18.29 ± 2.35 ^b pg/mL | 43.44 ± 2.74 ^g pg/mL | 85.88 | 66.47 | 19.02 ± 1.5 ^b µmol/L | 24.67 ± 2.70 ^e µmol/L | 72.27 | 64.03 | 536.93 ± 23.50 ^b dpm/mL | 830.11 ± 34.00 ^f dpm/mL | 80.94 | 70.54 | 1.02 ± 0.039 | 1.17 ± 0.06 ^b ng/mL | 1.79 ± 0.14 ^d ng/mL | 79.62 | 68.82 | 424.25 ± 36.86 ^f pg/mL | 582.31 ± 52.25 ^e pg/mL | 56.72 | IC50 (cPLA2 [2]): 0.5 ± 0.008 µM; IC50 (SARS-CoV-2 main protease): 1.18 ± 0.025 µM; decrease in TNF-α level (TNF-α; [8]): 40.59% |
| COc1cc(C=Nn2c(Nc3ccc(S(=O)(=O)Nc4nccc(C)n4)cc3)nc3ccccc3c2=O)ccc1O [Compound 5] | 34.17 ± 1.73 ^e pg/mL | 72.13 ± 3.94 ^k pg/mL | 73.63 | 44.33 | 29.37 ± 2.21 ^f µmol/L | 45.75 ± 2.87 ^g µmol/L | 57.18 | 33.29 | 719.32 ± 37.15 ^e dpm/mL | 1258.99 ± 35.57 ^k dpm/mL | 74.48 | 55.32 | 2.73 ± 0.008 | 2.40 ±0.09 ^e ng/mL | 2.74 ± 0.32 ^c ng/mL | 58.19 | 52.26 | 524.98 ± 19.11 ^e pg/mL | 671.91 ± 23.11 ^i pg/mL | 46.44 | IC50 (cPLA2 [2]): 2.08 ± 0.016 µM; IC50 (SARS-CoV-2 main protease): 3.68 ± 2.35 µM; decrease in TNF-α level (TNF-α; [8]): 31.26% |
| Cc1ccnc(NS(=O)(=O)c2ccc(Nc3nc4ccccc4c(=O)n3N)cc2)n1 [Compound 4] | 29.10 ± 2.52 ^d pg/mL | 57.93 ± 2.92 ^i pg/mL | 77.54 | 55.29 | 25.18 ± 2.98 ^d µmol/L | 37.27 ± 3.00 ^c µmol/L | 63.29 | 45.66 | 671.05 ± 29.17 ^d dpm/mL | 1077.77 ± 68.61 ^i dpm/mL | 76.19 | 61.75 | 2.84 ± 0.026 | 2.17 ± 0.07 ^d ng/mL | 2.55 ± 0.26 ^c ng/mL | 62.20 | 55.57 | 481.36 ± 39.63 ^d pg/mL | 654.20 ± 22.28 ^h pg/mL | 50.90 | IC50 (cPLA2 [2]): 1.44 ± 0.009 µM; IC50 (SARS-CoV-2 main protease): 2.012 ± 0.004 µM; decrease in TNF-α level (TNF-α; [8]): 33.36% |
| O=c1cc(-c2ccccc2)oc2cc(O)c(O)c(O)c12 [Baicalein, reference compound] | 24.77 ± 2.73 ^c pg/mL | 54.27 ± 3.46 ^h pg/mL | 80.88 | 58.11 | 20.53 ± 1.89 ^c µmol/L | 32.01 ± 4.81 ^f µmol/L | 70.07 | 53.33 | 616.34 ± 28.34 ^c dpm/mL | 903.43 ± 35.71 ^g dpm/mL | 78.13 | 67.33 | 0.89 ± 0.041 | 1.42 ± 0.13 ^c ng/mL | 2.06 ± 0.23 ^g ng/mL | 75.26 | 64.11 | 431.21 ± 32.88 ^c pg/mL | 639.55 ± 37.84 ^g pg/mL | 56.01 | IC50 (cPLA2 [2]): 3.88 ± 0.013 µM; decrease in TNF-α level (TNF-α; [8]): 34.76% |
| CCOC(=O)c1nn2c(=O)c3ccccc3nc2n1-c1ccc(S(=O)(=O)Nc2nccc(C)n2)cc1 [Compound 12] | 40.61 ± 4.19 ^f pg/mL | 85.23 ± 6.51 ^l pg/mL | 68.66 | 34.22 | 30.94 ± 3.76 ^f µmol/L | 50.36 ± 3.96 ^h µmol/L | 54.89 | 26.57 | 722.24 ± 30.40 ^e dpm/mL | 1348.21 ± 50.26 dpm/mL | 74.37 | 52.15 | 4.45 ± 0.007 | 3.21 ± 0.21 ^f ng/mL | 3.84 ± 0.29 ^g ng/mL | 44.08 | 33.10 | 551.52 ± 24.65 ^f pg/mL | 748.98 ± 31.22 ^j pg/mL | 43.75 | IC50 (cPLA2 [2]): 2.39 ± 0.046 µM; IC50 (SARS-CoV-2 main protease): 5.47 ± 0.018 µM; decrease in TNF-α level (TNF-α; [8]): 23.59% |
| Ivermectin [reference compound] | 62.31 ± 1.41 ^j pg/mL | 106.13 ± 9.81 ^m pg/mL | 51.41 | 18.09 | 50.74 ± 3.34 ^h µmol/L | 62.01 ± 4.81 ^i µmol/L | 26.02 | 9.59 | 1002.65 ± 90.98 ^h dpm/mL | 1172.50 ± 72.55 ^j dpm/mL | 64.41 | 58.39 | 110 ± 3.27 | 3.10 ± 0.1 ^f ng/mL | 3.77 ± 0.62 ^g ng/mL | 45.99 | 34.32 | 714.29 ± 28.09 ^g pg/mL | 870.22 ± 40.62 ^k pg/mL | 27.13 | IC50 (cPLA2 (bee venom PLA2)): 138 ± 1.54 µM; IC50 (SARS-CoV-2 main protease): 42.4 ± 2.5 µM; decrease in TNF-α level (TNF-α; [8]): 11.23% |
